Measured values: PubChem BioAssay (NCI)
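In this assay, cells in 96-well plates receive the compound at five concentrations for 48 hours. Endpoints are linearly interpolated between the surrounding concentrations. The concentration for full growth arrest is given as TGI.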

How the values were obtained:
Assay in all cases: NCI tumour cell line growth inhibition, 48 h
ACHN renal = tested on: ACHN renal
CCRF-CEM leukemia = tested on: CCRF-CEM leukemia
T-47D breast = tested on: T-47D breast
RPMI-8226 leukemia = tested on: RPMI-8226 leukemia
SF-295 CNS = tested on: SF-295 CNS
SR leukemia = tested on: SR leukemia
NCI-H460 lung = tested on: NCI-H460 lung
UACC-62 melanoma = tested on: UACC-62 melanoma
IGROV1 ovarian = tested on: IGROV1 ovarian
SW-620 colon = tested on: SW-620 colon
MDA-MB-231 breast = tested on: MDA-MB-231 breast
HL-60(TB) leukemia = tested on: HL-60(TB) leukemia
M14 melanoma = tested on: M14 melanoma
PC-3 prostate = tested on: PC-3 prostate
SK-MEL-28 melanoma = tested on: SK-MEL-28 melanoma
CAKI-1 renal = tested on: CAKI-1 renal
786-0 renal = tested on: 786-0 renal
SF-268 CNS = tested on: SF-268 CNS
NCI-H226 lung = tested on: NCI-H226 lung

Row | SMILES | TGI (ACHN renal) [µM] | TGI (CCRF-CEM leukemia) [µM] | TGI (T-47D breast) [µM] | TGI (RPMI-8226 leukemia) [µM] | TGI (SF-295 CNS) [µM] | TGI (SR leukemia) [µM] | TGI (NCI-H460 lung) [µM] | TGI (UACC-62 melanoma) [µM] | TGI (IGROV1 ovarian) [µM] | TGI (SW-620 colon) [µM] | TGI (MDA-MB-231 breast) [µM] | TGI (HL-60(TB) leukemia) [µM] | TGI (M14 melanoma) [µM] | TGI (PC-3 prostate) [µM] | TGI (SK-MEL-28 melanoma) [µM] | TGI (CAKI-1 renal) [µM] | TGI (786-0 renal) [µM] | TGI (SF-268 CNS) [µM] | TGI (NCI-H226 lung) [µM]
1 | C=CCSC1=N/C(=C\c2ccc(OC)cc2)C(=O)N1CC=C | > 100 | 78 | > 100 | 42 | > 100 | 43.7 | > 100 | > 100 | > 100 | > 100 | > 100 | 34.8 | > 100 | 80.1 | > 100 | > 100 | > 100 | > 100 | –
2 | COc1ccc2nc3n(c2c1)C(c1c(F)cccc1F)SC3 (configuration not stated) | > 100 | > 100 | > 100 | > 100 | > 100 | > 100 | > 100 | > 100 | > 100 | > 100 | > 100 | 78.7 | > 100 | > 100 | > 100 | > 100 | > 100 | > 100 | 66.2
3 | COc1ccc(C2Oc3c(cccc3-c3c(-c4ccc(O)cc4)oc4cc(O)cc(O)c4c3=O)C(=O)C2O)cc1O (configuration not stated) | > 100 | > 100 | > 100 | > 100 | > 100 | > 100 | > 100 | > 100 | > 100 | > 100 | > 100 | > 100 | > 100 | > 100 | > 100 | – | > 100 | > 100 | > 100
4 | C[C@@H](NC(=O)Cn1c(Cl)nc2ccccc21)c1ccccc1 | > 100 | > 100 | > 100 | > 100 | > 100 | > 100 | > 100 | > 100 | – | > 100 | > 100 | > 100 | > 100 | > 100 | > 100 | > 100 | > 100 | > 100 | > 100
5 | CCCCCCc1cc2cc(-c3cn4c(n3)sc3ccccc34)c(=O)oc2cc1O | > 100 | > 100 | > 100 | > 100 | > 100 | > 100 | > 100 | 5.58 | > 100 | > 100 | > 100 | > 100 | > 100 | > 100 | > 100 | > 100 | > 100 | > 100 | > 100
6 | O=c1oc2ccccc2c(O)c1C(c1cccc(C(c2c(O)c3ccccc3oc2=O)c2c(O)c3ccccc3oc2=O)c1)c1c(O)c2ccccc2oc1=O | > 100 | 69.3 | > 100 | 76.6 | > 100 | 58.8 | > 100 | 95.7 | > 100 | > 100 | 99.3 | 45.8 | > 100 | > 100 | > 100 | 49.5 | 45.1 | > 100 | > 100
7 | C[C@H](c1ccccc1)n1c(N)c(-c2nc3ccccc3s2)c2ccc([N+](=O)[O-])cc2c1=O | 65.7 | – | 17.6 | 1.87 | 50.8 | 13 | > 61.5 | > 100 | 98.9 | > 100 | 27.7 | 36.6 | > 100 | > 65.7 | > 100 | > 85.1 | > 100 | > 100 | > 63.1
8 | CO[C@@H]1C[C@H]2[C@@H]3CC[C@H]([C@H](C)COC(C)=O)[C@@]3(C)CC[C@@H]2[C@@]2(C)CC[C@H]3C[C@]312 | > 100 | > 100 | > 100 | > 100 | > 100 | > 100 | > 100 | – | > 100 | > 100 | > 100 | > 100 | > 100 | > 100 | > 100 | > 100 | > 100 | > 100 | > 100
9 | CCOC(=O)N/N=C(\CC)NO | > 100 | > 100 | > 100 | > 100 | – | > 100 | > 100 | > 100 | > 100 | > 100 | > 100 | > 100 | – | > 100 | > 100 | > 100 | > 100 | > 100 | > 100
10 | Cc1cc2c(nn1)CCc1c-2no[n+]1[O-] | > 100 | > 100 | > 100 | > 100 | > 100 | > 100 | > 100 | > 100 | > 100 | > 100 | > 100 | – | > 100 | > 100 | > 100 | > 100 | > 100 | > 100 | > 100
11 | COc1ccc(C(OCC2OC3(COC(c4ccccc4)(c4ccc(OC)cc4)c4ccc(OC)cc4)C(Oc4nc(=O)ccn43)C2O)(c2ccccc2)c2ccc(OC)cc2)cc1 (configuration not stated) | > 100 | > 100 | > 100 | > 100 | > 100 | > 100 | – | > 100 | > 100 | > 100 | > 100 | > 100 | > 100 | > 100 | > 100 | > 100 | > 100 | > 100 | > 100
12 | CC(=O)NC1CC(C(C)(C)NC(C)=O)CC=C1C (configuration not stated) | – | > 100 | > 100 | – | > 100 | > 100 | > 100 | > 100 | > 100 | > 100 | > 100 | > 100 | > 100 | > 100 | > 100 | – | > 100 | > 100 | –
13 | CC1(C)OC[C@H](COCOP2(=O)Oc3ccc4ccccc4c3-c3c(ccc4ccccc34)O2)O1 | 37.3 | 84.8 | 36.2 | – | 32.2 | 45.6 | 33.3 | 46.9 | 72.2 | 29.7 | 31 | 48.5 | 32 | 27.6 | 27 | – | 81.6 | 39.1 | 37.3
14 | O=C1C=C(NCC(c2ccccc2)c2ccccc2)C(=O)c2ncccc21 | 13.4 | 9.7 | 13.4 | 5.84 | 3.51 | 4.87 | 1.92 | 2.9 | 8.82 | – | 11.5 | 3.32 | 3.25 | 6.24 | 10 | 11.4 | 15.3 | 13.8 | 9.71
15 | Clc1ccc(C(Cc2ccccc2)c2c(Cl)nc(N3CCNCC3)nc2Cl)cc1 (configuration not stated) | 29.9 | 27.2 | 29.6 | 33.7 | 36 | 3.71 | 30.2 | 44 | 24.2 | 27.7 | 26.9 | 10.7 | 29.7 | 28 | 26.6 | 18 | 30.1 | – | 40.7
16 | Cc1c(NC(=O)CSC(=S)N(C)C)c(=O)n(-c2ccccc2)n1C | > 100 | > 100 | > 100 | > 100 | > 100 | > 100 | > 100 | – | > 100 | > 100 | > 100 | – | > 100 | > 100 | > 100 | > 100 | > 100 | > 100 | > 100
17 | CN(C)CCNC(=O)c1cccc2c1Oc1cccc([N+](=O)[O-])c1O2 | 37.5 | 89.8 | 27.9 | – | 36.7 | 76.1 | 35.4 | 33 | 34.1 | 46.2 | 20.5 | 51.7 | 30 | 29.8 | 38.9 | 33.7 | 42.6 | 42.7 | 27.9
18 | COC(=O)CSc1nc2[nH]c(SC)c(C(N)=O)c2c(=O)n1-c1ccccc1 | – | > 10 | > 10 | > 10 | > 10 | > 10 | – | > 10 | > 10 | > 10 | > 10 | > 10 | > 10 | > 10 | > 10 | > 10 | > 10 | > 10 | –
19 | Nc1n[nH]c2c(C(=O)Nc3ccc(Cl)cc3)c(N)n(N)c(=O)c12 | – | > 100 | > 100 | > 100 | – | > 100 | > 100 | > 100 | > 100 | > 100 | > 100 | > 100 | > 100 | > 100 | > 100 | > 100 | > 100 | > 100 | > 100
20 | C=C1C2CC3CCC2C(OC(=O)c2ccccc2C(=O)O)C13 (configuration not stated) | > 100 | > 100 | > 100 | – | > 100 | > 100 | > 100 | > 100 | > 100 | > 100 | > 100 | > 100 | > 100 | > 100 | > 100 | > 100 | > 100 | > 100 | > 100
21 | CNn1c(-c2ccc(C)cc2)n[nH]c1=O | > 100 | > 100 | > 100 | > 100 | > 100 | > 100 | > 100 | > 100 | > 100 | > 100 | > 100 | – | > 100 | > 100 | – | > 100 | > 100 | > 100 | > 100
22 | CSc1ncc2c(C#N)c3[nH]c4ccccc4n3c(=O)c2n1 | > 100 | 27.8 | > 100 | 12.3 | > 100 | 34.5 | 87.8 | 21.2 | > 100 | > 100 | > 100 | 25.1 | > 100 | 48.7 | – | 78.4 | > 100 | > 100 | > 100
23 | Cc1cc(S(=O)(=O)NC2=NCCCN2)c(S)cc1Cl | > 100 | – | > 100 | – | – | 56.1 | > 100 | 90.3 | > 100 | 37.8 | > 100 | 45.9 | 86.1 | > 100 | > 100 | > 100 | 56.4 | > 100 | 88.2
24 | O=C(Cn1c(C(=O)/C=C/c2ccc(Cl)cc2)nc2ccccc21)c1ccc(Cl)cc1 | 72.5 | 8.45 | > 100 | 49.7 | – | 22.9 | 28.9 | 33.7 | 71.7 | > 100 | 52 | 29.1 | 43.6 | > 100 | 62.6 | – | 66.8 | > 100 | 64.4
25 | CCOC(=O)CC(=O)Nc1cccc2sc3ncccc3c(=O)c12 | > 100 | > 100 | > 100 | > 100 | > 100 | > 100 | > 100 | > 100 | – | > 100 | > 100 | – | > 100 | > 100 | > 100 | > 100 | > 100 | > 100 | > 100
26 | COc1ccc2cc(CN3CCC(C4CCN(Cc5ccc6cc(OC)ccc6c5)CC4)CC3)ccc2c1 | 21.7 | 4.33 | 4.45 | 4.19 | 7.57 | 3.6 | 5.04 | 3.74 | 21.6 | 7.98 | 9.97 | 4.31 | – | 48.7 | 4.75 | 8.42 | 4.23 | 10.8 | 38.3
